From paper PMC3048208 (British Journal of Cancer, 2011)
Structures can show the parent of a compound that is named as a salt. Marks after values point to notes of the source that are not given here.

System: patients with advanced solid tumours
Test: Phase I safety: DLT and adverse events (CTCAE v3.0)
[1] = All grades, level 1, 10 mg 3 days every 2 weeks, 3 patients
[2] = All grades, level 2, 10 mg, 6 patients
[3] = All grades, level 3, 20 mg, 6 patients
[4] = All grades, level 4, 30 mg, 4 patients
[5] = All grades, level 5, 50 mg, 4 patients
[6] = All grades, level 5.5, 60 mg, 7 patients
[7] = All grades, level 6, 70 mg, 6 patients
[8] = All grades, level 7, 90 mg, 2 patients
[9] = Grades 3/4, level 1, 10 mg 3 days every 2 weeks, 3 patients

SMILES: CCCCc1nc2cc(/C=C/C(=O)NO)ccc2n1CCN(CC)CC [SB939, 3-[2-butyl-1-(2-diethylaminoethyl)-1H-benzoimidazol-5-yl]-N-hydroxyacrylami-hydrochloride]
- Grade 2 raised AST and hyperbilirubinemia, no. of patients (60 mg): 3
- Grade 3 ALT rise, no. of patients (60 mg): two
- Dose reductions, patients (70 mg): 2 of 6
- Dose reductions, patients (90 mg): 2 of 2
- ALT (raised), no. of patients [1]: 0
- AST (raised), no. of patients [1]: 1
- Abdominal pain, no. of patients [1]: 0
- Alkaline phophatase (raised), no. of patients [1]: 1
- Altered taste, no. of patients [1]: 0
- Anaemia, no. of patients [1]: 2
- Anorexia, no. of patients [1]: 0
- Bilirubin (raised), no. of patients [1]: 0
- Cardiac arrythmia other, no. of patients [1]: 0
- Cardiac dysfunction, no. of patients [1]: 0
- Cardiac ischaemia, no. of patients [1]: 0
- Constipation, no. of patients [1]: 0
- Creatinine (raised), no. of patients [1]: 0
- Diarrhoea, no. of patients [1]: 0
- Fatigue, no. of patients [1]: 0
- Leukopenia, no. of patients [1]: 1
- Lymphopenia, no. of patients [1]: 0
- Mucositis, no. of patients [1]: 1
- Myositis, no. of patients [1]: 0
- Nausea, no. of patients [1]: 0
- Neutropenia, no. of patients [1]: 1
- QT prolongation, no. of patients [1]: 0
- Supra ventricular arrythmia, no. of patients [1]: 0
- Syncope, no. of patients [1]: 0
- Thrombocytopenia, no. of patients [1]: 0
- Ventricular arrythmias (PVCs), no. of patients [1]: 0
- Ventricular bigemini, no. of patients [1]: 0
- Vomiting, no. of patients [1]: 0
- ALT (raised), no. of patients [2]: 1
- AST (raised), no. of patients [2]: 3
- Abdominal pain, no. of patients [2]: 0
- Alkaline phophatase (raised), no. of patients [2]: 5
- Altered taste, no. of patients [2]: 0
- Anaemia, no. of patients [2]: 6
- Anorexia, no. of patients [2]: 0
- Bilirubin (raised), no. of patients [2]: 1
- CPK, no. of patients [2]: 0
- Cardiac arrythmia other, no. of patients [2]: 0
- Cardiac dysfunction, no. of patients [2]: 0
- Cardiac ischaemia, no. of patients [2]: 0
- Constipation, no. of patients [2]: 0
- Creatinine (raised), no. of patients [2]: 1
- Diarrhoea, no. of patients [2]: 1
- Fatigue, no. of patients [2]: 2
- Leukopenia, no. of patients [2]: 2
- Lymphopenia, no. of patients [2]: 5
- Mucositis, no. of patients [2]: 1
- Myositis, no. of patients [2]: 0
- Nausea, no. of patients [2]: 0
- Neutropenia, no. of patients [2]: 1
- QT prolongation, no. of patients [2]: 1
- Supra ventricular arrythmia, no. of patients [2]: 0
- Syncope, no. of patients [2]: 0
- Thrombocytopenia, no. of patients [2]: 2
- Ventricular arrythmias (PVCs), no. of patients [2]: 1 ^c
- Ventricular bigemini, no. of patients [2]: 1 ^c
- Vomiting, no. of patients [2]: 0
- ALT (raised), no. of patients [3]: 2
- AST (raised), no. of patients [3]: 3
- Abdominal pain, no. of patients [3]: 0
- Alkaline phophatase (raised), no. of patients [3]: 4
- Altered taste, no. of patients [3]: 1
- Anaemia, no. of patients [3]: 5
- Anorexia, no. of patients [3]: 2
- Bilirubin (raised), no. of patients [3]: 1
- CPK, no. of patients [3]: 1
- Cardiac arrythmia other, no. of patients [3]: 0
- Cardiac dysfunction, no. of patients [3]: 0
- Cardiac ischaemia, no. of patients [3]: 0
- Constipation, no. of patients [3]: 0
- Creatinine (raised), no. of patients [3]: 1
- Diarrhoea, no. of patients [3]: 1
- Fatigue, no. of patients [3]: 2
- Leukopenia, no. of patients [3]: 1
- Lymphopenia, no. of patients [3]: 2
- Mucositis, no. of patients [3]: 0
- Myositis, no. of patients [3]: 1
- Nausea, no. of patients [3]: 2
- Neutropenia, no. of patients [3]: 1
- QT prolongation, no. of patients [3]: 0
- Supra ventricular arrythmia, no. of patients [3]: 0
- Syncope, no. of patients [3]: 1
- Thrombocytopenia, no. of patients [3]: 1
- Ventricular arrythmias (PVCs), no. of patients [3]: 0
- Ventricular bigemini, no. of patients [3]: 0
- Vomiting, no. of patients [3]: 1
- ALT (raised), no. of patients [4]: 2
- AST (raised), no. of patients [4]: 1
- Abdominal pain, no. of patients [4]: 0
- Alkaline phophatase (raised), no. of patients [4]: 2
- Altered taste, no. of patients [4]: 0
- Anaemia, no. of patients [4]: 4
- Anorexia, no. of patients [4]: 0
- Bilirubin (raised), no. of patients [4]: 1
- CPK, no. of patients [4]: 1
- Cardiac arrythmia other, no. of patients [4]: 0
- Cardiac dysfunction, no. of patients [4]: 0
- Cardiac ischaemia, no. of patients [4]: 0
- Constipation, no. of patients [4]: 0
- Creatinine (raised), no. of patients [4]: 2
- Diarrhoea, no. of patients [4]: 1
- Fatigue, no. of patients [4]: 1
- Leukopenia, no. of patients [4]: 2
- Lymphopenia, no. of patients [4]: 2
- Mucositis, no. of patients [4]: 0
- Myositis, no. of patients [4]: 0
- Nausea, no. of patients [4]: 0
- Neutropenia, no. of patients [4]: 2
- QT prolongation, no. of patients [4]: 0
- Supra ventricular arrythmia, no. of patients [4]: 0
- Syncope, no. of patients [4]: 0
- Thrombocytopenia, no. of patients [4]: 0
- Ventricular arrythmias (PVCs), no. of patients [4]: 0
- Ventricular bigemini, no. of patients [4]: 0
- Vomiting, no. of patients [4]: 0
- ALT (raised), no. of patients [5]: 0
- AST (raised), no. of patients [5]: 2
- Abdominal pain, no. of patients [5]: 0
- Alkaline phophatase (raised), no. of patients [5]: 2
- Altered taste, no. of patients [5]: 0
- Anaemia, no. of patients [5]: 4
- Anorexia, no. of patients [5]: 1
- Bilirubin (raised), no. of patients [5]: 0
- CPK, no. of patients [5]: 0
- Cardiac arrythmia other, no. of patients [5]: 0
- Cardiac dysfunction, no. of patients [5]: 0
- Cardiac ischaemia, no. of patients [5]: 0
- Constipation, no. of patients [5]: 0
- Creatinine (raised), no. of patients [5]: 0
- Diarrhoea, no. of patients [5]: 0
- Fatigue, no. of patients [5]: 3
- Leukopenia, no. of patients [5]: 1
- Lymphopenia, no. of patients [5]: 4
- Mucositis, no. of patients [5]: 0
- Myositis, no. of patients [5]: 0
- Nausea, no. of patients [5]: 2
- Neutropenia, no. of patients [5]: 1
- QT prolongation, no. of patients [5]: 0
- Supra ventricular arrythmia, no. of patients [5]: 0
- Syncope, no. of patients [5]: 0
- Thrombocytopenia, no. of patients [5]: 0
- Ventricular arrythmias (PVCs), no. of patients [5]: 0
- Ventricular bigemini, no. of patients [5]: 0
- Vomiting, no. of patients [5]: 2
- ALT (raised), no. of patients [6]: 4
- AST (raised), no. of patients [6]: 5
- Abdominal pain, no. of patients [6]: 0
- Alkaline phophatase (raised), no. of patients [6]: 6
- Altered taste, no. of patients [6]: 1
- Anaemia, no. of patients [6]: 7
- Anorexia, no. of patients [6]: 4
- Bilirubin (raised), no. of patients [6]: 2
- CPK, no. of patients [6]: 0
- Cardiac arrythmia other, no. of patients [6]: 1
- Cardiac dysfunction, no. of patients [6]: 0
- Cardiac ischaemia, no. of patients [6]: 0
- Constipation, no. of patients [6]: 0
- Creatinine (raised), no. of patients [6]: 2
- Diarrhoea, no. of patients [6]: 4
- Fatigue, no. of patients [6]: 6
- Leukopenia, no. of patients [6]: 5
- Lymphopenia, no. of patients [6]: 6
- Mucositis, no. of patients [6]: 0
- Myositis, no. of patients [6]: 0
- Nausea, no. of patients [6]: 5
- Neutropenia, no. of patients [6]: 5
- QT prolongation, no. of patients [6]: 1
- Supra ventricular arrythmia, no. of patients [6]: 0
- Syncope, no. of patients [6]: 0
- Thrombocytopenia, no. of patients [6]: 5
- Ventricular arrythmias (PVCs), no. of patients [6]: 0
- Ventricular bigemini, no. of patients [6]: 0
- Vomiting, no. of patients [6]: 4
- ALT (raised), no. of patients [7]: 1
- AST (raised), no. of patients [7]: 2
- Abdominal pain, no. of patients [7]: 0
- Alkaline phophatase (raised), no. of patients [7]: 3
- Altered taste, no. of patients [7]: 0
- Anaemia, no. of patients [7]: 6
- Anorexia, no. of patients [7]: 3
- Bilirubin (raised), no. of patients [7]: 0
- CPK, no. of patients [7]: 1
- Cardiac arrythmia other, no. of patients [7]: 0
- Cardiac dysfunction, no. of patients [7]: 0
- Cardiac ischaemia, no. of patients [7]: 0
- Constipation, no. of patients [7]: 0
- Creatinine (raised), no. of patients [7]: 2
- Diarrhoea, no. of patients [7]: 0
- Fatigue, no. of patients [7]: 4
- Leukopenia, no. of patients [7]: 3
- Lymphopenia, no. of patients [7]: 4
- Mucositis, no. of patients [7]: 1
- Myositis, no. of patients [7]: 0
- Nausea, no. of patients [7]: 4
- Neutropenia, no. of patients [7]: 3
- QT prolongation, no. of patients [7]: 1
- Supra ventricular arrythmia, no. of patients [7]: 0
- Syncope, no. of patients [7]: 0
- Thrombocytopenia, no. of patients [7]: 6
- Ventricular arrythmias (PVCs), no. of patients [7]: 0
- Ventricular bigemini, no. of patients [7]: 0
- Vomiting, no. of patients [7]: 2
- ALT (raised), no. of patients [8]: 2
- AST (raised), no. of patients [8]: 2
- Abdominal pain, no. of patients [8]: 0
- Alkaline phophatase (raised), no. of patients [8]: 1
- Altered taste, no. of patients [8]: 1
- Anaemia, no. of patients [8]: 2
- Anorexia, no. of patients [8]: 1
- Bilirubin (raised), no. of patients [8]: 1
- CPK, no. of patients [8]: 1
- Cardiac arrythmia other, no. of patients [8]: 1
- Cardiac dysfunction, no. of patients [8]: 1
- Cardiac ischaemia, no. of patients [8]: 1
- Constipation, no. of patients [8]: 0
- Creatinine (raised), no. of patients [8]: 2
- Diarrhoea, no. of patients [8]: 0
- Fatigue, no. of patients [8]: 2 ^c
- Leukopenia, no. of patients [8]: 1
- Lymphopenia, no. of patients [8]: 2
- Mucositis, no. of patients [8]: 0
- Myositis, no. of patients [8]: 0
- Nausea, no. of patients [8]: 2
- Neutropenia, no. of patients [8]: 1
- QT prolongation, no. of patients [8]: 1
- Supra ventricular arrythmia, no. of patients [8]: 1
- Syncope, no. of patients [8]: 0
- Thrombocytopenia, no. of patients [8]: 2
- Ventricular arrythmias (PVCs), no. of patients [8]: 1
- Ventricular bigemini, no. of patients [8]: 1
- Vomiting, no. of patients [8]: 2 ^c
- ALT (raised), no. of patients [9]: 0
- AST (raised), no. of patients [9]: 0
- Abdominal pain, no. of patients [9]: 0
- Alkaline phophatase (raised), no. of patients [9]: 0
- Altered taste, no. of patients [9]: 0
- Anaemia, no. of patients [9]: 0
- Anorexia, no. of patients [9]: 0
- Bilirubin (raised), no. of patients [9]: 0
- Cardiac arrythmia other, no. of patients [9]: 0
- Cardiac dysfunction, no. of patients [9]: 0
- Cardiac ischaemia, no. of patients [9]: 0
- Constipation, no. of patients [9]: 0
- Creatinine (raised), no. of patients [9]: 0
- Diarrhoea, no. of patients [9]: 0
- Fatigue, no. of patients [9]: 0
- Leukopenia, no. of patients [9]: 0
- Lymphopenia, no. of patients [9]: 0
- Mucositis, no. of patients [9]: 0
